Measured values: article PMC10302047, “Structure–Activity Relationship Studies of Indolglyoxyl-Polyamine Conjugates as Antimicrobials and Antibiotic Potentiators” (Pharmaceuticals, 2023)
pIC50: −log10 of the molar value. In brackets after ≈: the same amount, converted by molar mass. Read-outs that look alike come from different tables or passages of the source. Marks after values point to notes of the source that are not given here.

What was measured:
MRSA ATCC 43300 = assay: Antimicrobial susceptibility (MIC), MRSA; assay type: cell-based; settings: Staphylococcus aureus; MRSA ATCC 43300; mean (n = 2); read-out: MIC MRSA
Description: (§1) The susceptibility of bacterial strains S. aureus (ATCC 25923), E. coli (ATCC 25922) and P. aeruginosa (ATCC 27853) to antibiotics and compounds was determined according to previously reported protocols. Additional antimicrobial evaluation against MRSA (ATCC 43300) and C. albicans (ATCC 90028) was undertaken at the Community for Open Antimicrobial Drug Discovery at The University of Queensland (Australia) according to their standard protocols as reported previously.

S. aureus ATCC 25923 [1] = settings: S. aureus ATCC 25923; ref Cadelis et al. [16]; cited from earlier work
E. coli ATCC 25922 [2] = test system: E. coli ATCC 25922; set-up: method as in Cadelis et al. [16]; settings: ref Cadelis et al. [16]; cited from earlier work
[3] = test system: HEK293 (human embryonic kidney cells); settings: HEK293; ref Cadelis et al. [16]; read-out: Cyto. IC50 (concentration of compound at 50% cytotoxicity); cited from earlier work
human red blood cells = assay: Hemolytic assay; assay type: cell-based; settings: mean (n = 2)
Description: Hemolysis assays were conducted according to previously reported protocols.

P. aeruginosa ATCC 27853 [4] = test system: P. aeruginosa ATCC 27853; set-up: method as in Cadelis et al. [16]; settings: ref Cadelis et al. [16]; cited from earlier work
C. albicans ATCC 90028 [5] = test system: C. albicans ATCC 90028; set-up: method as in Cadelis et al. [16]; settings: ref Cadelis et al. [16]; cited from earlier work
P. aeruginosa ATCC 27853 [6] = settings: doxycycline at 2 µg/mL (4.5 µM), P. aeruginosa ATCC 27853; ref Cadelis et al. [16]; cited from earlier work
C. albicans ATCC 90028 [7] = assay: Antifungal susceptibility (MIC), C. albicans; assay type: cell-based; settings: Candida albicans, ATCC90028, mean (n = 2)
Description: as §1

P. aeruginosa ATCC 27853 [8] = assay: Antibiotic potentiation (MIC of antibiotics in the presence of synergizing compounds), P. aeruginosa; assay type: cell-based, Pseudomonas aeruginosa; settings: concentration required to restore doxycycline activity at 2 µg/mL (4.5 µM) against P. aeruginosa ATCC 27853
E. coli ATCC 25922 [9] = assay: Antimicrobial susceptibility (MIC), E. coli; assay type: cell-based; settings: Escherichia coli, ATCC25922, mean (n = 3)
Description: as §1

[10] = Cytotoxicity assay HEK293; assay type: cell-based, human; settings: human, HEK293 cells, mean (n = 2), read-out: Cyto. IC50 (concentration of compound at 50% cytotoxicity)
Description: Cytotoxicity assays were conducted according to previously reported protocols.

S. aureus ATCC 25923 [11] = assay: Antimicrobial susceptibility (MIC), S. aureus; assay type: cell-based, Staphylococcus aureus; settings: Staphylococcus aureus, ATCC25923; S. aureus ATCC 25923; mean (n = 3)
Description: as §1

P. aeruginosa ATCC 27853 [12] = assay: Antimicrobial susceptibility (MIC), P. aeruginosa; assay type: cell-based; settings: Pseudomonas aeruginosa, ATCC27853, mean (n = 3), read-out: MIC P. a
Description: as §1

| MIC (MRSA ATCC 43300) | MIC (C. albicans ATCC 90028 [7]) | MIC (E. coli ATCC 25922 [9]) | MIC (S. aureus ATCC 25923 [11]) | MIC (P. aeruginosa ATCC 27853 [12]) | SMILES | MIC S. a (S. aureus ATCC 25923 [1]) | MIC E. c (E. coli ATCC 25922 [2]) | pIC50 [3] | Hem. HC10 (concentration of compound at 10% hemolytic activity) (human red blood cells) | MIC P. a (P. aeruginosa ATCC 27853 [4]) | MIC C. a (C. albicans ATCC 90028 [5]) | Conc (µM) for Potentiation of doxycycline (P. aeruginosa ATCC 27853 [6]) | Conc (µM) for Potentiation of doxycycline (P. aeruginosa ATCC 27853 [8]) | pIC50 [10] |
| --- | --- | --- | --- | --- | --- | --- | --- | --- | --- | --- | --- | --- | --- | --- |
| 41.4 µM (≈ 22.5 µg/mL) | – | – | – | – | O=C(NCCCNCCCCNCCCNC(=O)C(=O)c1c[nH]c2ccccc12)C(=O)c1c[nH]c2ccccc12 [Compound 2] | >100 ^h µM | >100 ^h µM | < 4.39 | >41 µM | >100 ^h µM | >41.4 ^h µM | – | – | – |
| 20 µM (≈ 11.5 µg/mL) | – | – | – | – | Cc1ccc2[nH]cc(C(=O)C(=O)NCCCNCCCCNCCCNC(=O)C(=O)c3c[nH]c4ccc(C)cc34)c2c1 [Compound 5] | 25 ^h µM | 200 ^h µM | < 4.40 | >40 µM | 100 ^h µM | >40.0 ^h µM | 6.25 ^b µM | – | – |
| 38.4 µM (≈ 23.2 µg/mL) | – | – | – | – | COc1ccc2[nH]cc(C(=O)C(=O)NCCCNCCCCNCCCNC(=O)C(=O)c3c[nH]c4ccc(OC)cc34)c2c1 [Compound 4] | 100 ^h µM | >200 ^h µM | < 4.42 | >38 µM | >200 ^h µM | >38.4 ^h µM | 12.5 ^b µM | – | – |
| 18.5 µM | > 37 µM | > 200 µM | 29 µM | > 200 µM | O=C(NCCCNCCCCCCCCNCCCNC(=O)C(=O)c1c[nH]c2c(F)cccc12)C(=O)c1c[nH]c2c(F)cccc12.O=C(O)C(F)(F)F.O=C(O)C(F)(F)F [Compound 21c, N^1,N^8-Bis(3-(2-(7-fluoro-1H-indol-3-yl)-2-oxoacetamido)propyl)octane-1,8-diaminium 2,2,2-trifluoroacetate] | – | – | – | >37 µM | – | – | – | 58 µM | 5.04 |
| 34 µM (≈ 24.4 µg/mL) | 34 µM (≈ 24.4 µg/mL) | 100 µM (≈ 71.7 µg/mL) | 12.5 µM (≈ 8.96 µg/mL) | > 200 µM | COc1ccc2[nH]cc(C(=O)C(=O)NCCCNCCCCCCCCCCCCNCCCNC(=O)C(=O)c3c[nH]c4ccc(OC)cc34)c2c1 [Compound 19e] | – | – | – | >34 µM | – | – | – | >200 µM | 5.07 |
| > 37 µM | > 37 µM | 400 µM | 50 µM | 800 µM | COc1cccc2c(C(=O)C(=O)NCCCNCCCCCCNCCCNC(=O)C(=O)c3c[nH]c4c(OC)cccc34)c[nH]c12.O=C(O)C(F)(F)F.O=C(O)C(F)(F)F [Compound 22a, N^1,N^6-Bis(3-(2-(7-methoxy-1H-indol-3-yl)-2-oxoacetamido)propyl)hexane-1,6-diaminium 2,2,2-trifluoroacetate] | – | – | – | >37 µM | – | – | – | 100 µM | < 4.43 |
| 39 µM (≈ 23.4 µg/mL) | > 39 µM | 12.5 µM (≈ 7.51 µg/mL) | 25 µM (≈ 15 µg/mL) | 100 µM (≈ 60.1 µg/mL) | O=C(NCCCNCCCCCCCCNCCCNC(=O)C(=O)c1c[nH]c2ccccc12)C(=O)c1c[nH]c2ccccc12 [Compound 17c] | – | – | – | >39 µM | – | – | – | 50 µM | 5.00 |
| ≤ 0.3 µM | > 39 µM | 60 µM | 30.2 µM | > 240 µM | Cc1cccc2c(C(=O)C(=O)NCCCNCCCCCCNCCCNC(=O)C(=O)c3c[nH]c4c(C)cccc34)c[nH]c12.O=C(O)C(F)(F)F.O=C(O)C(F)(F)F [Compound 23a, N^1,N^6-Bis(3-(2-(7-methyl-1H-indol-3-yl)-2-oxoacetamido)propyl)hexane-1,6-diaminium 2,2,2-trifluoroacetate] | – | – | – | >39 µM | – | – | – | 60 µM | < 4.41 |
| > 36 µM | 36 µM (≈ 23.8 µg/mL) | > 100 µM | > 100 µM | > 100 µM | COc1ccc2[nH]cc(C(=O)C(=O)NCCCNCCCCCCCCNCCCNC(=O)C(=O)c3c[nH]c4ccc(OC)cc34)c2c1 [Compound 19c] | – | – | – | 26 µM | – | – | – | 25 µM | 4.74 |
